Measured values: patent US3969419A, “3-(2-Halo-4-biphenylyl)-1-butanols and derivatives thereof” (Boehringer Ingelheim GmbH, priority 1973, dated 1976)
Where two headings read alike, the source gives them in different places.

Tests used:
[1] = acute toxicity by oral administration to rats; assay type: in vivo; conditions: in vivo, po; for selectivity ratio: quotient of LD50 and average anti-exudative ED35, rat, per os, read-out: Therapeutic ratio LD50/aver.ED35; for LD50 at 336 h: rat, per os as trituration in tylose, deaths within 14 days, Litchfield and Wilcoxon
Experimental: (§1) The compounds were tested for their anti-exudative effects on the kaolin edema and carrageenin edema of the hind paws of the rat, for their ulcerogenicity and for their acute toxicity by oral administration to rats.
(§2) After oral administration to male and female FW 49-rats (ratio 1:1) having an average body weight of 135 gm, the acute toxicity (LD50) was determined. The substances were administered orally as a trituration in tylose.
(§3) The calculation of the LD50 -values was effected, as far as possible, according to the method of Litchfield and Wilcoxon, based on the percentage of animals which died within 14 days after administration of the different doses.
(§4) The therapeutic indices, as a measure for the therapeutic usefulness, were calculated by forming the quotient of the ED50 -value for the ulcerogenicity or of th LD50 -value and the ED35 -value derived from the tests for anti-exudative activity against the kaolin and carrageenin edema.

in vivo = conditions: po; for selectivity ratio: quotient of ulcerogenic ED50 and average antiexudative ED35, rat, per os, read-out: Therapeutic index: Ratio of ulcerogenic activity to antiexudative activity ED50/ED35; for TD50: rat
Experimental: as §1
The tests for ulcerogenic activity were effected on FW 49-rats of both sexes (ratio 1:1) having a body weight of 130 to 150 gm. The animals were given the substances on three subsequent days, once each day, as a trituration in tylose by way of an esophageal tube.
The animals were killed four hours after the last administration; the stomach and duodenal mucosa were investigated for ulcers.
From the percentage of animals showing at least one ulcer after administration of different doses, the ED50 -value was calculated according to the method of Litchfield and Wilcoxon [J. Pharmacol. exp. Therap. 96, 99 (1949) ].
as §4

[2] = system: kaolin and carrageenin edema of the hind paws of the rat; assay: average anti-exudative (antiphlogistic) activity against kaolin and carrageenin edema; assay type: in vivo, rat (male FW 49); conditions: per os, for C only from carrageenin edema
Experimental: The compounds of the present invention were tested for antiphlogistic activity, ulcerogenic activity and acute toxicity in the manner described below, and representative results of these tests are shown in the tables, where
as §1
(§5) The kaolin edema was induced according to the method of Hillebrecht [Arzneimittel-Forsch. 4, 607 (1954) ] by subplantary injection of 0.05 ml of a 10% suspension of kaolin in a 0.85% sodium chloride solution. The measurement of the thickness of the paws was done by using the technique of Doepfner and Cerletti (Int. Arch. Allergy, Immunol. 12, 89 (1958)).
(§6) Male FW 49-rats of an average weight of 120-150 gm were orally treated with the test compounds 30 minutes before inducement of the edema with the aid of a esophageal tube. Five hours after the provocation of the edema the averaged values of the swelling caused in the paws of the rats treated with the test compounds were compared with those values measured on blind-treated control animals. By graphic extrapolation the dose leading to a 35% reduction of the swelling (ED35) was calculated from the percent reduction values measured by administration of different doses.
(§7) The provocation of the carrageenin edema was effected according to the method of Winter et al. [Proc. Soc. exp. Biol. Med. 111, 544 (1962) ] by subplantary injection of 0.05 ml of a 1% solution of carrageenin in a 0.85% solution of sodium chloride. The test compounds were orally administered 60 minutes before the provocation of the edema.
(§8) For the calculation of the reductive effect on the edema, the values measured three hours after the provocation of the edema were used. All the other details were the same as described above in the case of the kaolin edema.
as §4

[3] = system: kaolin edema of the hind paws of the rat; assay: anti-exudative effect on the kaolin edema of the hind paws of the rat; assay type: in vivo, rat (male FW 49); conditions: per os 30 minutes before inducement of edema, swelling at 5 hours, dose leading to 35% reduction of the swelling, graphic extrapolation
Experimental: as §1, §5, §6

[4] = system: carrageenin edema of the hind paws of the rat; assay: anti-exudative effect on the carrageenin edema of the hind paws of the rat; assay type: in vivo, rat (male FW 49); conditions: per os 60 minutes before provocation of edema, measured 3 hours after, dose leading to 35% reduction of the swelling
Experimental: as §1, §7, §8

rat = assay: acute toxicity by oral administration to rats; assay type: in vivo; conditions: rat, per os, at 1600 mgm/kg, within 14 days
Experimental: as §1, §2, §3, §4

[5] = Table I, average of kaolin and carrageenin edema, read-out: Average anti-exudative ED35 per os
[6] = Table II, read-out: Average antiexudative ED35

CC(CCO)c1ccc(-c2ccccc2)c(F)c1 (stereo not drawn) [A, 3-(2-fluoro-4-biphenylyl)-1-butanol]
selectivity ratio [1]: 64.7
LD50 at 336 h [1]: 825 mg/kg
selectivity ratio (in vivo): 2.39
TD50 (in vivo): 30.5 mg/kg
ED35 [2, 5]: 12.8 mg/kg
ED35 [2, 6]: 12.8 mg/kg
ED35 [3]: 17 mg/kg
ED35 [4]: 8.5 mg/kg

CC(CCOC(=O)c1ccncc1)c1ccc(-c2ccccc2)c(F)c1.Cl (stereo not drawn) [B, 3-(2-fluoro-4-biphenylyl)-1-butyl isonicotinate hydrochloride]
selectivity ratio [1]: 92.7
LD50 at 336 h [1]: 1530 mg/kg
selectivity ratio (in vivo): 3.7
TD50 (in vivo): 61 mg/kg
ED35 [2, 5]: 16.5 mg/kg
ED35 [2, 6]: 16.5 mg/kg
ED35 [3]: 20 mg/kg
ED35 [4]: 13 mg/kg

CC(CCO)c1ccc(-c2ccccc2)c(Cl)c1 (stereo not drawn) [C, 3-(2-chloro-4-biphenylyl)-1-butanol]
animals died (rat): 1 out of 10
selectivity ratio [1]: > 94.1
LD50 at 336 h [1]: > 1600 mg/kg
selectivity ratio (in vivo): 2.15
TD50 (in vivo): 36.6 mg/kg
ED35 [2, 5]: 17 mg/kg
ED35 [2, 6]: 17 mg/kg
ED35 [4]: 17 mg/kg
